Source: ChEMBL document CHEMBL1139686, “Structure-based design, synthesis, and SAR evaluation of a new series of 8-hydroxyquinolines as HIF-1alpha prolyl hydroxylase inhibitors” (Bioorg Med Chem Lett, 2006)

Target: Egl nine homolog 1 (Homo sapiens, UniProt Q9GZT9)
Experiment: Inhibition of human EGLN1
Conditions: not given

Chain of Egl nine homolog 1 (Q9GZT9 whole entry): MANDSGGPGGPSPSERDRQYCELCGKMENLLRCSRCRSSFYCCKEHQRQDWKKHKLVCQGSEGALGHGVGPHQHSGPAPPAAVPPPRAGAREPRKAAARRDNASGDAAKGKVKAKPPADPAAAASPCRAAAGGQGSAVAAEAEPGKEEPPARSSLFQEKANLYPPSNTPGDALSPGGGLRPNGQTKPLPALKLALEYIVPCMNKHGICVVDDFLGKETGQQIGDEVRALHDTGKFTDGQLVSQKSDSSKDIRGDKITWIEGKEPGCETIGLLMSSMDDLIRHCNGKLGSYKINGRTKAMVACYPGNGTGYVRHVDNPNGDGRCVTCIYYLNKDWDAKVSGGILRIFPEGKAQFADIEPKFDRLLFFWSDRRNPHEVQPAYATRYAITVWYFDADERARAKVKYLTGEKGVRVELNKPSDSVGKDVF

With `O=C(O)c1ccc2cccnc2c1O` the IC50 was over 100000 nM.

System: HEK293
Experiment: Induction of VEGF in HEK293 cells by ELISA
Conditions: Homo sapiens

Going from `O=C(NCc1ccccc1)c1ccc2cccnc2c1O` to `O=C(NCCc1ccccc1)c1ccc2cccnc2c1O`, the EC50 falls from 890 nM to 580 nM (1.5-fold).

First: O=C(Nc1ccc(C(F)(F)F)cc1)c1ccc2cccnc2c1O
Second: N#Cc1ccc(NC(=O)c2ccc3cccnc3c2O)cc1
The EC50 of the first is higher: over 100000 nM for the first, 140 nM for the second.

Compared with `Cc1cc(F)cc(NC(=O)c2ccc3cccnc3c2O)c1`, `COc1cc(NC(=O)c2ccc3cccnc3c2O)cc(OC)c1` is 3.6-fold higher in EC50: 890 nM for the first, 3200 nM for the second. The first is the more potent here.

Compared with `O=C(O)CNC(=O)c1ccc2cccnc2c1O`, `N#CCNC(=O)c1ccc2cccnc2c1O` is lower in EC50: over 100000 nM for the first, 4100 nM for the second.

First: O=C(NCc1ccc(Cl)cc1)c1ccc2cccnc2c1O
Second: COc1ccc(CNC(=O)c2ccc3cccnc3c2O)cc1
The EC50 of the first is 5-fold higher: 3100 nM for the first, 620 nM for the second. The second is the more potent here.

Compared with `N#Cc1cccc(NC(=O)c2ccc3cccnc3c2O)c1`, `O=C(Nc1ccccc1)c1ccc2cccnc2c1O` is 1.5-fold higher in EC50: 420 nM for the first, 630 nM for the second. The first is the more potent here.

Compared with `O=C(Nc1cccnc1)c1ccc2cccnc2c1O`, `COC(=O)c1ccc(NC(=O)c2ccc3cccnc3c2O)cc1` is higher in EC50: 1900 nM for the first, over 100000 nM for the second.
